# Reference: US7371921B2, “Nonhuman animal model non-responsive to mycoplasma-origin lipoprotein/lipopeptide” (Japan Science and Technology Agency, priority 2000, dated 2008)
# What was measured:
# peritoneal macrophages [1] = assay: TNF-á production by peritoneal macrophages stimulated with lipopeptide; type: cell-based, mouse; conditions: 24 hours, various concentrations, FIG. 4
# Method: (§1) Each of wild-type (wild-type), TLR6 knockout (TLR6−/−) and TLR2 knockout (TLR2−/−) mice were intraperitoneally injected with 2 ml of 4% thioglycollate medium (DIFCO). Three days later, peritoneal exudate cells were isolated from the peritoneal cavity of each mouse. These cells were cultured in RPMI1640 medium (GIBCO) supplemented with 10% fetal bovine serum (GIBCO) for 2 hours at 37° C. and washed with ice-cold Hank's buffered salt solution (HBSS; GIBCO) to remove nonadherent cells. Adherent cells were used as peritoneal macrophages for the following experiments.
# (§2) Responsiveness of peritoneal macrophages derived from a wild-type mouse or a TLR6 knockout mouse to lipopeptide was examined with synthetic Gram negative bacteria-derived lipopeptide JBT3002 and synthetic mycoplasma-derived lipopeptide MALP-2. Peritoneal macrophages (5×10^4 cells) of wild-type and TLR6 knockout mice prepared in Example 2 were cultured for 24 hours together with various concentrations of JBT3002 (provided by Dr. Z. Dong) or MALP-2 (provided by Dr. P. F. Muhlradt) shown in FIG. 4, and stimulated. When culture was completed, the production amounts of TNF-á (TNFá) and NO2^− (NO) in culture supernatants were measured (FIG. 4). NO2^− was measured by the Greiss method using NO2/NO3 Assay Kit (Dojindo Laboratories).
# peritoneal macrophages [2] = assay: NO2^− production by peritoneal macrophages stimulated with lipopeptide (Greiss method); type: cell-based, mouse; conditions: 24 hours, various concentrations, FIG. 4
# Method: as §1, §2
# NF-êB = NF-êB activation in peritoneal macrophages (nucleoprotein binding to NF-êB DNA probe, electrophoresis, autoradiography); type: cell-based, mouse; conditions: 0.1 ng/ml JBT3002 or 0.3 ng/ml MALP-2 for 20 or 40 minutes, FIG. 5
# Method: as §1
# It is known that TLR signals activate IRAK, which is serine/threonine kinase, via an adapter molecule MyD88 and then activate MAP kinase and NF-êB (Immunity 11, 115-122, 1999). In addition, it is also known that a mycoplasma-derived lipoprotein/lipopeptide causes vital reaction via TLR2 and MyD88 signaling pathways (J. Immunol. 164, 554-557, 2000). Consequently, with wild-type, TLR6 knockout and TLR2 knockout mice, whether a bacteria-derived lipoprotein/lipopeptide activates intracellular signaling molecules was examined. Peritoneal macrophages (1×10^6 cells) of wild-type (wild-type) and TLR6 knockout (TLR6−/−) and TLR2 knockout (TLR2−/−) mice prepared in Example 2 were stimulated with 0.1 ng/ml JBT3002 or 0.3 ng/ml MALP-2 for 20 or 40 minutes, and nucleoproteins were extracted from macrophages of each mouse and incubated with a specific probe containing DNA binding site of NF-êB, then subjected to electrophoresis and visualized by autoradiography (FIG. 5).
# peritoneal macrophages [3] = assay: TNFá production by peritoneal macrophages in response to lipoprotein, LPS or PGN (ELISA); type: cell-based; conditions: macrophages from TLR6 knockout mouse (TLR6−/−) compared with wild-type; 24 hours; 10 μM lipoprotein, 100 ng/ml LPS, various concentrations of PGN; FIG. 3
# Method: as §1
# Therefore, responsiveness of TLR6 knockout mouse to these LPS, lipoprotein derived from Spirochaeta, and peptidoglycan derived from Staphylococcus aureus was examined. Peritoneal macrophages (5×10^4 cells) of wild-type and TLR6 knockout mice prepared in Example 2 were cultured for 24 hours together with 10 μM B. burgdorferi-derived lipoprotein OspA or OspC, 10 μM T. pallidum-derived lipoprotein 17-kDa (17) or 47-kDa (47), 100 ng/ml LPS, or various concentrations of peptidoglycan (PGN) shown in FIG. 3. When culture was completed, concentrations of TNFá in culture supernatants were measured by ELISA respectively.
# [4] = macrophages from TLR6 knockout mouse (TLR6−/−)
# [5] = macrophages from wild-type mouse
molecule,measurement,setting,value
MALP-2,production amount of TNF-á,peritoneal macrophages [1]; [4],produced no TNF-á and NO2^−
same,production amount of TNF-á,peritoneal macrophages [1]; [5],increased the production amounts of TNF-á (TNFá) and NO2^− (NO) in a manner dependent on doses
same,production amount of NO2^−,peritoneal macrophages [2]; [4],produced no TNF-á and NO2^−
same,production amount of NO2^−,peritoneal macrophages [2]; [5],increased the production amounts of TNF-á (TNFá) and NO2^− (NO) in a manner dependent on doses
same,activation of NF-êB,NF-êB; macrophages from TLR2 knockout mouse (TLR2−/−),no activation was observed
same,activation of NF-êB,NF-êB; [4],no activation in response to MALP-2 was observed
same,activation of NF-êB,NF-êB; [5],activation of NF-êB in response to the stimulation with MALP-2 or JBT3002 was observed
lipopolysaccharide [LPS],TNFá in culture supernatant,peritoneal macrophages [3],approximately the same amount of TNFá as macrophages derived from a wild-type mouse
peptidoglycan [PGN],TNFá in culture supernatant,peritoneal macrophages [3],approximately the same amount of TNFá as macrophages derived from a wild-type mouse
OspA: B. burgdorferi-derived lipoprotein,TNFá in culture supernatant,peritoneal macrophages [3],approximately the same amount of TNFá as macrophages derived from a wild-type mouse
"OspC: B. burgdorferi-derived lipoprotein (protein, UniProt Q07337 19-210, looked up) Outer surface protein C: CNNSGKDGNTSANSADESVKGPNLTEISKKITDSNAVLLAVKEVEALLSSIDEIAAKAIGKKIHQNNGLDTENNHNGSLLAGAYAISTLIKQKLDGLKNEGLKEKIDAAKKCSETFTNKLKEKHTDLGKEGVTDADAKEAILKTNGTKTKGAEELGKLFESVEVLSKAAKEMLANSVKELTSPVVAESPKKP",TNFá in culture supernatant,peritoneal macrophages [3],approximately the same amount of TNFá as macrophages derived from a wild-type mouse
